Several values for one entry are separate records, joined by “and”; a condition that tells them apart may be missing. Identical values can stand only once. Entries after “also recorded” stand apart in the source; their conditions may differ.
Tests used:
[1] = system: Capan2 (pancreatic adenocarcinoma); assay: SRB proliferation assay (48 h) on Capan2 cells; type: cell-based; details: nonlinear regression
Protocol: (§1) Cells were cultured under standard cell culture conditions, 37 °C, 5% CO2, humidified atmosphere. A2780 cells were cultured in RMPI 1640 medium supplemented with 10% fetal calf serum, 2 mM glutamine, and 1% penicillin–streptomycin (Sigma-Aldrich). ID8 cells were cultured in high-glucose DMEM (4.5 g/L glucose) supplemented with 4% fetal calf serum, 2 mM glutamine, 1% penicillin–streptomycin (Sigma-Aldrich), and 1% ITS supplement (Sigma-Aldrich I3146). U251 cells were maintained in MEM (Sigma-Aldrich), 10% fetal bovine serum (Sigma-Aldrich), 1% penicillin/streptomycin (Invitrogene), and 2 mM glutamine. MCF7 cells were maintained in MEM (Sigma-Aldrich), 10% fetal bovine serum (Sigma-Aldrich), 1% penicillin/streptomycin (Invitrogen, Waltham, MA, USA), and 2 mM glutamine. Capan2 cells were maintained in MEM (Sigma-Aldrich), 10% fetal bovine serum (Sigma-Aldrich), 1% penicillin/streptomycin (Invitrogen), and 2 mM glutamine. Human primary dermal fibroblasts were cultured in low-glucose DMEM (1 g/L glucose) supplemented with 20% fetal calf serum, 2 mM glutamine, and 1% penicillin–streptomycin (Sigma-Aldrich).
(§2) The SRB accumulation assay assesses protein content in a sample, and it was used to assess cell proliferation. The SRB accumulation assay was performed similarly to [68]. Cells were seeded in 96-well plates. The next day, cells were treated with the compounds for 48 h in the concentrations indicated in a cell incubator. At the end of treatment, cells were fixed with 10% trichloroacetic acid (TCA). Fixed cells were stained with SRB (0.4% m/v dissolved in 1% acetic acid) for 60 min. Fixed cells were washed in 1% acetic acid three times; acetic acid was removed, and cells were left to dry. Protein-bound SRB was released by adding 100 µL of 10 mM Tris base. Plates were measured in a plate photometer (Thermo Scientific Multiscan GO spectrophotometer, Waltham, MA, USA) at 540 nm. On each plate, wells were designed to contain untreated cells. In calculations, the readings for these wells were considered as 1, and all readings were expressed relative to these values.
(§3) Statistical analysis was performed using Graphpad Prism version 8.0.1. Values were tested for normal distribution using the D’Agostino and Pearson normality test. When necessary, values were log-normalized or were normalized using the Box–Cox normalization method, as indicated in the figure captions. Nonlinear regression was performed using the built-in “[Inhibitor] vs. response—variable slope (four parameters), least square fit” utility of Graphpad that yielded IC50 and Hill slope values.

[2] = system: A2780 human ovarian carcinoma cells; assay: MTT reduction assay (4 h, rapid toxicity) on A2780 cells; type: cell-based
Protocol: as §1
(§4) The MTT reduction assay assesses the activity of mitochondrial complex I, and it was used to assess rapid toxicity. The MTT reduction assay was performed similarly to [67]. Cells were seeded in 96-well plates. The next day, cells were treated with the compounds for 4 h in the concentrations indicated in a cell incubator. At the end of treatment, MTT was added in 0.5 mg/mL final concentration, and cells were incubated at 37 °C in a cell incubator. Then, culture media was removed, the reduced MTT dye was resolved in dimethyl sulfoxide (DMSO), and plates were measured in a plate photometer (Thermo Scientific Multiscan GO spectrophotometer, Waltham, MA, USA) at 540 nm. On each plate, wells were designed to contain untreated/vehicle-treated cells. In calculations, the readings for these wells were considered as 1, and all readings were expressed relative to these values.

ID8 cells [3] = assay: MTT reduction assay (4 h, rapid toxicity) on ID8 cells; type: cell-based
Protocol: as §1, §4

A2780 cells [4] = assay: SRB assay on A2780 cells with or without 3 µM rucaparib; type: cell-based, human; details: 48 h, vehicle (no rucaparib)
Protocol: as §2, §3

[5] = system: A2780 human ovarian carcinoma cells; assay: SRB proliferation assay (48 h) on A2780 cells; type: cell-based; details: for cytostatic activity in long-term SRB assay (in words): A2780 cells, 100–0.0017 µM; for Hill slope (span over cell lines): SRB curves, A2780 and ID8 cells; for A2780 Hill Slope / IC50: SRB, nonlinear regression, N/A = could not be calculated/had no effect
Protocol: as §1, §2, §3

[6] = system: human primary skin fibroblasts; assay: SRB proliferation assay (48 h) on primary fibroblasts; type: cell-based
Protocol: as §1, §2, §3

[7] = Determination of the distribution coefficients (logD), n-octanol/PBS; type: physicochemical; details: n-octanol / PBS pH = 7.40
Protocol: Prior to the experiments, n-octanol was saturated with aqueous PBS solution (pH = 7.40) and vice versa. The corresponding complex (approximately 0.2–0.3 mg) was dissolved in a mixture of 2.50 mL of pre-saturated n-octanol and 2.50 mL of pre-saturated PBS buffer, and the mixture was vigorously stirred for 3 days. According to the NMR stability measurements, this time was necessary to reach equilibrium between the various ionic complex species. Due to the lipophilic/hydrophilic character of the complexes, those with benzoyl protection or the non-sugar derivative could mostly be found in the n-octanol, while the acetyl and non-protected complexes could be found in the aqueous PBS phase. The appropriate separated solution was centrifuged (ScanSpeed 406G instrument, 4000 RPM for 5 min), and the absorption of the “stock solution” was measured (VWR UV-1600PC Spectrophotometer, 270–420 nm). Then 2.00 mL of stock solution was stirred vigorously with 16.00 mL of pre-saturated, clean n-octanol or PBS solution. After 1 day, the phases were separated and centrifuged, and the absorption of the solution was measured again. From the absorption difference of the stock solutions, the distribution coefficient (D) was calculated according to the previously described formulae [66].

[8] = system: human primary skin fibroblasts; assay: MTT reduction assay (4 h, rapid toxicity) on primary fibroblasts; type: cell-based
Protocol: as §1, §4

ID8 cells [9] = assay: SRB proliferation assay (48 h) on ID8 cells; type: cell-based; details: for cytostatic activity in long-term SRB assay (in words): ID8 cells; for IC50 / ID8 Hill Slope: SRB, nonlinear regression, N/A = could not be calculated/had no effect
Protocol: as §1, §2, §3

A2780 cells [10] = assay: Annexin V-FITC, PI double staining (flow cytometry); type: cell-based, human; details: concentration corresponding to IC50, 2 h, 4 h or 48 h
Protocol: Annexin V–PI double staining was applied to assess apoptotic and necrotic cell death similar to [37, 38, 69]. A2780 cells were treated with the indicated compounds at the concentration corresponding to their IC50 value for 2, 4, and 48 h. The 4 and 48 h time points correspond to the time points for the MTT and SRB assays, while the 2 h time point reflects the optimum time point for the detection of apoptotic or necrotic cell death. Quadrants were set on the basis of the FITC and PI values observed for the vehicle-treated cells.

[11] = system: MCF7 cells (breast cancer); assay: SRB proliferation assay (48 h) on MCF7 cells; type: cell-based; details: nonlinear regression
Protocol: as §1, §2, §3

[12] = system: U251 cells (glioblastoma model); assay: SRB proliferation assay (48 h) on U251 cells; type: cell-based; details: nonlinear regression
Protocol: as §1, §2, §3

A2780 cells [13] = assay: SRB assay on A2780 cells with antioxidant cotreatment (GSH, NAC, MitoTEMPO, vitamin E, Trolox); type: cell-based, human; details: 48 h
Protocol: as §2

A2780 cells [14] = assay: Western blotting of 4-hydroxy-nonenal (4HNE), oxidative stress marker; type: cell-based, human; details: concentration corresponding to IC50, 48 h
Protocol: The preparation of protein extracts, the separation of protein extracts in SDS-polyacrylamide gel electrophoresis, and the subsequent Western blotting were performed as described in [70] using the antibodies in Table 4. Enhanced chemiluminescence was developed using ChemiDoc Imager, (Bio-Rad, Hercules, CA, USA). Densitometry was performed using Image Lab Touch Software, Bio-Rad, Hercules, CA, USA).

[15] = SRB, nonlinear regression, N/A = could not be calculated/had no effect

| IC50 [1] | IC50 (A2780 cells [4]) | IC50 [5] | logD [7] | IC50 [11] | IC50 [12] | SMILES | Capan2 Hill Slope [1] | effect in short-term MTT assay, rapid toxicity (in words) [2] | cytostatic activity in long-term SRB assay (in words) [5] | Hill slope (span over cell lines) [5] | A2780 Hill Slope [5] | effect in short-term MTT assay, rapid toxicity (in words) [8] | cytostatic activity in long-term SRB assay (in words) (ID8 cells [9]) | IC50 (ID8 cells [9]) | ID8 Hill Slope (ID8 cells [9]) | proportions of PI-positive, annexin V-positive and double-positive cells (A2780 cells [10]) | MCF7 Hill Slope [11] | U251 Hill Slope [12] | effect of GSH and NAC cotreatment on the cytostatic effects of the complex (A2780 cells [13]) | effect of MitoTEMPO on the cytostatic effects of the complex (A2780 cells [13]) | also measured |
| --- | --- | --- | --- | --- | --- | --- | --- | --- | --- | --- | --- | --- | --- | --- | --- | --- | --- | --- | --- | --- | --- |
| 2.18 µM | 1.38 µM | 0.9 µM | 2.85 | 1.29 µM | 2.82 µM | Cc1ccc(C(C)C)cc1.F[P-](F)(F)(F)(F)F.O=C(OCC1OC(n2cc(-c3ccccn3)nn2)C(OC(=O)c2ccccc2)C(OC(=O)c2ccccc2)C1OC(=O)c1ccccc1)c1ccccc1.[Cl][Ru+] (mixture of isomers) [Ru-2a] | 2.43 | cytostatic properties | cytostatic properties | 2–3 | 1.95 | no effect | cytostatic | 1.5 µM and 1.53 µM | 2.50 | did not largely increase | 1.85 | 1.75 | attenuated the cytostatic effects | did not modulate the effects | effect on MTT signal above 10 µM ([2]; above 10 µM concentration): reduced the MTT signal; effect on MTT signal above 10 µM (ID8 cells [3]; above 10 µM concentration): reduced the MTT signal; Fibroblast Hill Slope [6, 15]: 0.78; effect on SRB signal at 100 µM ([6]; primary human fibroblasts): reduced the SRB signal; expression of oxidative stress marker 4-hydroxy-nonenal (4HNE) (A2780 cells [14]): increase in the expression |
| 3.27 µM | 6.18 µM | 6.19 µM | 2.41 | 3.74 µM | 4.17 µM | Cc1ccc(C(C)C)cc1.F[P-](F)(F)(F)(F)F.O=C(OCC1OC(c2n[n+]3c(o2)-c2cccc[n+]2[Ru-]3[Cl])C(OC(=O)c2ccccc2)C(OC(=O)c2ccccc2)C1OC(=O)c1ccccc1)c1ccccc1 (mixture of isomers) [Ru-4] | 1.81 | cytostatic properties | cytostatic properties | 2–3 | 2.62 | no effect | cytostatic | 5.66 µM | 3.04 | did not largely increase | 2.01 | 2.46 | attenuated the cytostatic effects | did not modulate the effects | effect in long-term SRB assay (in words) ([6]; primary human fibroblasts): no effect; also recorded: no activity; expression of oxidative stress marker 4-hydroxy-nonenal (4HNE) (A2780 cells [14]): increase in the expression |
| 4.97 µM | 6.83 µM | 8.54 µM | 2.04 | 6.69 µM | 6.61 µM | Cc1ccc(C(C)C)cc1.F[P-](F)(F)(F)(F)F.O=C(OC1COC(c2n[n+]3c(o2)-c2cccc[n+]2[Ru-]3[Cl])C(OC(=O)c2ccccc2)C1OC(=O)c1ccccc1)c1ccccc1 (mixture of isomers) [Ru-6] | 1.66 | cytostatic properties | cytostatic properties | 2–3 | 3.74 | no effect | cytostatic | 6.76 µM | 3.59 | did not largely increase | 2.13 | 2.13 | attenuated the cytostatic effects | did not modulate the effects | effect on MTT signal at 100 µM (ID8 cells [3]; 100 µM, Ru-4: not statistically significant): reduced the MTT signal; Fibroblast Hill Slope [6, 15]: 3.52; IC50 ([6]; SRB, nonlinear regression, N/A = could not be calculated/had no effect, read-out: Fibroblast IC50): 24.6 µM; effect on SRB signal at 100 µM ([6]; primary human fibroblasts): reduced the SRB signal; expression of oxidative stress marker 4-hydroxy-nonenal (4HNE) (A2780 cells [14]): increase in the expression |

Reference: PMC8508960, “Ruthenium Half-Sandwich Type Complexes with Bidentate Monosaccharide Ligands Show Antineoplastic Activity in Ovarian Cancer Cell Models through Reactive Oxygen Species Production” (International Journal of Molecular Sciences, 2021)
